Converted amounts (≈) assume the structure as drawn.

The target in series [1] is T1, mPiezo1 L1342A/L1345A mutant (Mus musculus, UniProt E2JF22, L1342A/L1345A).
T1 construct: The full-length mPiezo1 has 2547 amino acids in each monomer; expressed in transfected cells
Briefly: Patch clamp (chemical-induced and stretch-induced currents), L1342A/L1345A mutant. The note with it: Piezo1-KO-HEK cells for chemical-induced currents. The series is classed as cell-based. Here is the method: Protocols for HEK293T cell culture, transient transfection, and patch-clamp experiments with an Axopatch 200B amplifier (Axon Instruments) or HEKA EPC10 were essentially similar to how previously described[6],[8]. […] The extracellular solution was composed of (in mM) 133 NaCl, 3 KCl, 2.5 CaCl2, 1 MgCl2, 10 HEPES (pH 7.3 with NaOH), and 10 glucose. All experiments were carried out at room temperature. Currents were sampled at 20 kHz, filtered at 2 kHz using the Clampex 10.4 software (Axon Instruments) or Patchmaster software. Leak currents before mechanical stimulations were subtracted offline from the current traces.
Stock solutions of Jedi1 (100 mM), Jedi2 (100 mM), and Yoda1 (30 mM) were solubilized in DMSO and diluted to the desired final concentrations as indicated in the figure legends using external or internal solutions. […] In other conditions, the compounds were directly added to the recording chamber or pipette solution, and the currents were recorded within 10 min. […]
Stretch-activated currents were recorded in the cell-attached patch-clamp configuration as previously described. […] Stretch-activated channels were recorded at a holding potential of −80 mV with pressure steps from 0 to −100 mm Hg (−10 mm Hg increments), and 4–11 recording traces were averaged per cell for analysis. […]

Series [2] concerns the target T2, mPiezo1(1–2190) (Mus musculus, UniProt E2JF22).
T2 construct: N-terminal fragment containing residues 1–2190 [mPiezo1(1–2190)]; GST (PreScission site) (cleaved yes); made in house; host or cells: HEK293T
Briefly: SPR binding to immobilized purified protein. The note with it: FPLC fraction of trimeric proteins. The source says:
Since Jedi1/2 act through the extracellular side of Piezo1, we asked if it might bind to the C-terminal extracellular domain (CED; 2214–2457) that trimerizes to form the extracellular Cap-structure of the central ion-conducting pore module (Fig. 1)[8]. However, none of Jedi1/2, Yoda1, and the control compound bound to the purified CED proteins (without the use of the C12E10 detergent since they are soluble proteins; Fig. 4a–h). We next purified the large N-terminal fragment containing residues 1–2190 [mPiezo1(1–2190)] using the same purification procedure for mPiezo1. […] We used the FPLC fraction corresponding to the trimeric proteins (peak 2 of Supplementary Fig. 2d) for SPR binding assay. […] Given that Jedi1/2 function through the extracellular side, we propose that Jedi1/2 bind to the extracellular loop regions of the blade. The distant location of the Jedi action region relative to the pore indicates a distinct long-distance allosteric gating of Piezo1.
Real-time binding and analysis by SPR were conducted on BIAcore T200 instrument (GE Healthcare) at 25 °C. Proteins were immobilized on a research-grade CM5 sensor chip by amine-coupling methods. During the pH scouting process, 10 mM sodium acetate at various pH including 4.0, 4.5, 5.0, and 5.5 and protein concentrations varying between 10 and 100 μg/ml were screened before immobilization. Except pH 4.5 for mPiezo1-(1–2190), pH 5.0 was used for all other proteins, including mPiezo1, CED, Δ15-16, and Δ19-20. All proteins were diluted to 50 μg/ml in buffer containing 10 mM sodium acetate at the abovementioned pH, 0.026% C12E10 detergent, and 150 mM NaCl, except that the soluble CED proteins, which were diluted in 150 mM NaCl without detergent. […]
For data collection, compounds at various concentrations were diluted in a running buffer containing 1× PBS, 0.026% detergent C12E10, and 0.05% Surfactant P20 (GE Healthcare Bio-Sciences AB) and injected over the flow cells with at a 30 μl/min flow rate. […] Data were analyzed with the BIAcore T200 evaluation software by fitting to a 1:1 affinity-binding model.
(In SPR one partner is held on a chip, and binding of the other changes the refractive index at the surface.)

Series [3] deals with T3, mPiezo1 (Mus musculus, UniProt E2JF22).
T3 construct: The full-length mPiezo1 has 2547 amino acids in each monomer; expressed in transfected cells; host or cells: HEK293T
Put plainly: Fura-2 single-cell Ca2+ imaging of mPiezo1-mCherry-transfected HEK293T cells. In kind it is cell-based. The settings on record: for Ca2+ response (Fura-2 ratio): mCherry-positive HEK293T cells transfected with mPiezo1-mCherry. Here is the method:
Fura-2 single-cell Ca^2+ imaging was performed according to the previous protocol. In brief, mCherry-Piezo1 cDNA (1 μg)-transfected HEK293T cells were plated onto 12-mm round glass coverslips, which were coated with poly-D-lysine and placed in 24-well plates, and subject to Fura-2 single-cell Ca^2+ imaging about 36 h post transfection. Cells were washed with buffer containing 1× HBSS (1.3 mM Ca^2+) and 10 mM HEPES (pH 7.2), incubated with 2.5 μM Fura-2 and 0.05% Pluronic F-127 (Life Technologies) for 30 min, then washed again with the previously mentioned buffer. The coverslip was mounted into an inverted Nikon-Tie microscope equipped with a CoolSNAP charge-coupled devise (CCD) camera and Lambda XL light box (Sutter Instrument), and mCherry-positive and -negative cells were selected for measurement of the 340/380 ratio with a ×20 objective (numerical aperture 0.75) using the MetaFluor Fluorescence Ratio Imaging software (Molecular Device).

The nature of series [4]: Water solubility. In kind it is physicochemical. The settings on record: up to.

T3 sequence (E2JF22 whole entry): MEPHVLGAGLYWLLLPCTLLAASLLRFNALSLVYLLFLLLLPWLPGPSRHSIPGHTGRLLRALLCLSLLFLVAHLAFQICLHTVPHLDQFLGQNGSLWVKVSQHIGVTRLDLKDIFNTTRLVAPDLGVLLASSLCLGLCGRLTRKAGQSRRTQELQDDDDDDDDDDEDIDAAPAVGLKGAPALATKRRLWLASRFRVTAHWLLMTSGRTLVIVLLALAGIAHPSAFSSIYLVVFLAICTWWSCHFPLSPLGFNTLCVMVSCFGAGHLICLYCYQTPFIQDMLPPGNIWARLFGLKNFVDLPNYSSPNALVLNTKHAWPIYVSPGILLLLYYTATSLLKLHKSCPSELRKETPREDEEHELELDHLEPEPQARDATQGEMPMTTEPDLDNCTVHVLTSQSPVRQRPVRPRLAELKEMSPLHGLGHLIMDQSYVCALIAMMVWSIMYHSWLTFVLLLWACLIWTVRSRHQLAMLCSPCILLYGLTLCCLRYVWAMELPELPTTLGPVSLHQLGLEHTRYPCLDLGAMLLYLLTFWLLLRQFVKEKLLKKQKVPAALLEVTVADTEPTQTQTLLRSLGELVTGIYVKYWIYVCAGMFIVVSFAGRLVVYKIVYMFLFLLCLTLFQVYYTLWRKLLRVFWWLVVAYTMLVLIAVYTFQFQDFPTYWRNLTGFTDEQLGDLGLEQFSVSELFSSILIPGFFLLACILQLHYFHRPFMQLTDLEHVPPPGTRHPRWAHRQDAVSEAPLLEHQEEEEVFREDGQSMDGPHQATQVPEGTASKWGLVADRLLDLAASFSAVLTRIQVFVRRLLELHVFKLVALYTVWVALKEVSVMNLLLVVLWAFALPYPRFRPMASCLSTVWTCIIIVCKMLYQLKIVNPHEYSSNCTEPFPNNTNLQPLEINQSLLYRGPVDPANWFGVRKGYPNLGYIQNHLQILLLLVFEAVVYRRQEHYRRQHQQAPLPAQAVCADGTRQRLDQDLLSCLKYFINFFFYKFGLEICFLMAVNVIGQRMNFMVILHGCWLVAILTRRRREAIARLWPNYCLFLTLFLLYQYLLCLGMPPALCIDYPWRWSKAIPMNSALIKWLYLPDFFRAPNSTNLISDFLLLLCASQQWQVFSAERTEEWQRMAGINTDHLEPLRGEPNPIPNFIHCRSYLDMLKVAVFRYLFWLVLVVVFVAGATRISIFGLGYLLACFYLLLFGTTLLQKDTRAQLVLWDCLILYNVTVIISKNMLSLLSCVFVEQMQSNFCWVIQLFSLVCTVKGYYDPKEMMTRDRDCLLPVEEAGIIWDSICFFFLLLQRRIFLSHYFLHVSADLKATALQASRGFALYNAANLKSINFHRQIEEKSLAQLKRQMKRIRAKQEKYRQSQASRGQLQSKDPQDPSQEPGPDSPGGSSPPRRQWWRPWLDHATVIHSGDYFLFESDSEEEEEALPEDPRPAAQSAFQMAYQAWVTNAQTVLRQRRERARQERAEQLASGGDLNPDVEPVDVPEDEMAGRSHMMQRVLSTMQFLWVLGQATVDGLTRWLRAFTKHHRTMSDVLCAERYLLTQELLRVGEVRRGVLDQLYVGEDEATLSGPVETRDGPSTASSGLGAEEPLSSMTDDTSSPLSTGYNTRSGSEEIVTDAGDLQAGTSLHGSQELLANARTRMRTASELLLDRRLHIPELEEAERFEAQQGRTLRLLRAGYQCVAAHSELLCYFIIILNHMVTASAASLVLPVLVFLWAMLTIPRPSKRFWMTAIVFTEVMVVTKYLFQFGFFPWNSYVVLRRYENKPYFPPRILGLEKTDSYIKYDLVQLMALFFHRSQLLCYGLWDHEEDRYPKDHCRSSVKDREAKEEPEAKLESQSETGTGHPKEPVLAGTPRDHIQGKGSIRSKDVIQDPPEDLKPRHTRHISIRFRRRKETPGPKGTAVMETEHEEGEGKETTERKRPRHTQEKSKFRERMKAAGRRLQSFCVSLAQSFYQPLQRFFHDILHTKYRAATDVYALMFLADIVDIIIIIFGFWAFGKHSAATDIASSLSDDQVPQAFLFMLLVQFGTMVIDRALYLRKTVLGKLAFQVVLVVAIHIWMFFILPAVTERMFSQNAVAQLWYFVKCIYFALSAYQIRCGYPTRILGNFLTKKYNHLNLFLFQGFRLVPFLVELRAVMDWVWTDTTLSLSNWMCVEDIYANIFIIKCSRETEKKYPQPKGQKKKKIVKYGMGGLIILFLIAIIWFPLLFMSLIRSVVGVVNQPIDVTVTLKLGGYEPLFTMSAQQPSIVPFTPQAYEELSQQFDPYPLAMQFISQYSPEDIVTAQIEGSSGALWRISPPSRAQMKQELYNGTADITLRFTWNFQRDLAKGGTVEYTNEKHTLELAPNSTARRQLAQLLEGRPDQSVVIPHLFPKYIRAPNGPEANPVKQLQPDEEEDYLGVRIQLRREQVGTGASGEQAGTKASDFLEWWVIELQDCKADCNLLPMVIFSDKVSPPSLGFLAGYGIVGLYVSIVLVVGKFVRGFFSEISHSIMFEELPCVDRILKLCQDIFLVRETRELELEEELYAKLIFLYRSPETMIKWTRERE
T2 sequence (E2JF22 1-2190): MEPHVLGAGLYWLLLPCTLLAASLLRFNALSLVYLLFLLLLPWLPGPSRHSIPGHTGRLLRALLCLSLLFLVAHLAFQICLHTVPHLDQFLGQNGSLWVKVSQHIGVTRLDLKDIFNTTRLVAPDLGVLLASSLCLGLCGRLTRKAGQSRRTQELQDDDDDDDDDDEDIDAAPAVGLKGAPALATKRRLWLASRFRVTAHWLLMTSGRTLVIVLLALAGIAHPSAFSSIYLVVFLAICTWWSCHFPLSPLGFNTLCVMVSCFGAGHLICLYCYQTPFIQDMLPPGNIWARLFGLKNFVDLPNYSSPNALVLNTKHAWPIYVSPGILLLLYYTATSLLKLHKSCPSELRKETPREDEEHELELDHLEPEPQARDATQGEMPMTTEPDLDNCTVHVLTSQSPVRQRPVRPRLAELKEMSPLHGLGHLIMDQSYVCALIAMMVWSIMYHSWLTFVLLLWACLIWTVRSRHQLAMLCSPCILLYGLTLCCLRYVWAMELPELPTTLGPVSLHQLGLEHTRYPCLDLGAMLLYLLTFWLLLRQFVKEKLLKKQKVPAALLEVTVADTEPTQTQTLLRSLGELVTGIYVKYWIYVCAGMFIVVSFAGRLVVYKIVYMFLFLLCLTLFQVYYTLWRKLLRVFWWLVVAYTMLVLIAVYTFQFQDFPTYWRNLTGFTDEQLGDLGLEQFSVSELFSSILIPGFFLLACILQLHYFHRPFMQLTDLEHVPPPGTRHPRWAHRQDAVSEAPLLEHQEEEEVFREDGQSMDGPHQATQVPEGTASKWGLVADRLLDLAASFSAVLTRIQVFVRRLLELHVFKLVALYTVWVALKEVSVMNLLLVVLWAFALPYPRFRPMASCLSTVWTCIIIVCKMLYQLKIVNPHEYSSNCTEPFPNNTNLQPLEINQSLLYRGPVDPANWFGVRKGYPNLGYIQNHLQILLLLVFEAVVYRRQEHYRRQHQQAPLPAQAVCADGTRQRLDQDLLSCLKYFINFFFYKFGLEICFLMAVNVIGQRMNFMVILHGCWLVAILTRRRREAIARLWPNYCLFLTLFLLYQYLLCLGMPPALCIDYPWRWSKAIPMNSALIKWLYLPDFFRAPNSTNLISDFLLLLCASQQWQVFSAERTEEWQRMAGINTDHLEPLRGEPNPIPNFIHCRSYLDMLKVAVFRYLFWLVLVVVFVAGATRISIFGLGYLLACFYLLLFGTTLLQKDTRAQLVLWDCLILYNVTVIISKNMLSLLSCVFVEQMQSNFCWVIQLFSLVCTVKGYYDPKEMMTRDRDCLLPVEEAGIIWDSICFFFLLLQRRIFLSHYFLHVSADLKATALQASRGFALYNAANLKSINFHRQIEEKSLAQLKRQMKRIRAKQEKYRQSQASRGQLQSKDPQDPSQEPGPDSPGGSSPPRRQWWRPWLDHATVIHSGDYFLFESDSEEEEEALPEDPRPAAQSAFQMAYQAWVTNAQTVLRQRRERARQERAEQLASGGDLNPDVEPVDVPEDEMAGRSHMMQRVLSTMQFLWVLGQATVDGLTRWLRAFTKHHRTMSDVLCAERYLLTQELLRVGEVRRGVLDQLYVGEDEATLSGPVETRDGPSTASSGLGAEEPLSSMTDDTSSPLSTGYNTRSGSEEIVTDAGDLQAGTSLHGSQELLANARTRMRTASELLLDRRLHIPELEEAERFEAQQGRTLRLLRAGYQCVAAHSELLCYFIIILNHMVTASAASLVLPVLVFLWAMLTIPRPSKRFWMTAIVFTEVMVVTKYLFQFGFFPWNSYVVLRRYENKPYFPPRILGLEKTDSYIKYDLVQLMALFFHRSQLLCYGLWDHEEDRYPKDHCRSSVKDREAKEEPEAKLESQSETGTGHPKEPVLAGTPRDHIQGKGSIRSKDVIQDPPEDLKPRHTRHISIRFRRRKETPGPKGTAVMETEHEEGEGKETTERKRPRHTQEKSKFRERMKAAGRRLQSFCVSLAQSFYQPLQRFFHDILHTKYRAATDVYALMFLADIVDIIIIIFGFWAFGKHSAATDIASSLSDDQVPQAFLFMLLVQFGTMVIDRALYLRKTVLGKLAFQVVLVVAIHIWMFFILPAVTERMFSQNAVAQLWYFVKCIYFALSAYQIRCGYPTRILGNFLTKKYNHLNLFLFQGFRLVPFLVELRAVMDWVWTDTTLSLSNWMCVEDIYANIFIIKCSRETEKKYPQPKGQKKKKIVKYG
T1 sequence (E2JF22 whole entry L1342A/L1345A): as the sequence (E2JF22 whole entry) above, with L1342A, L1345A counted along it

With `Clc1cccc(Cl)c1CSc1nnc(-c2cnccn2)s1` [Yoda1, reference compound], in series [1], the “inward currents, stretching-current relationship and P50 of the L1342A/L1345A mutant” value is reported as “neither elicited inward currents”. Also, the “binding to mPiezo1(1–2190) proteins (SPR)” value (shortened to “binding”) in series [2] is recorded as “virtually identical fashion as to mPiezo1”. For the same compound, the “time course of the induced Ca2+ response” value in series [3] (Fura-2 single-cell imaging) is “slow activation, no decay, and poor reversibility”. The “Ca2+ response (Fura-2 ratio)” value in series [3] was “also responded to Yoda1”.

One may read the solubility as how much of the substance goes into solution per volume. Read a high solubility as much dissolved substance. On to `Cc1oc(-c2cccs2)cc1C(=O)O` [Jedi2], for which the solubility in series [4] is roughly 2000 µM (≈ 416 µg/mL). Moreover, in series [2], the “binding” value was “virtually identical fashion as to mPiezo1”. The “Ca2+ response (Fura-2 ratio)” value in series [3] is “caused an increase in Ca^2+”.

Take `Cc1oc(-c2ccccc2)cc1C(=O)O` [Jedi1]: the solubility in series [4] is roughly 2000 µM (≈ 404 µg/mL). In addition, in series [1], the “inward currents, stretching-current relationship and P50 of the L1342A/L1345A mutant” value is “neither elicited inward currents”. Besides, the “binding” value in series [2] is “virtually identical fashion as to mPiezo1”. Also, the “Ca2+ response (Fura-2 ratio)” value in series [3] is listed as “caused an increase in Ca^2+”.

(Values after publication PMC5880808, “A lever-like transduction pathway for long-distance chemical- and mechano-gating of the mechanosensitive Piezo1 channel” (Nature Communications, 2018).)
